Test results: patent EP4707280A1, “1,4-CINEOLE DERIVATIVE AND INTERMEDIATE THEREOF, HERBICIDE CONTAINING SAID DERIVATIVE AS ACTIVE INGREDIENT, METHOD FOR USING HERBICIDE, AND METHOD FOR PREPARING AGROCHEMICAL COMPOSITION” (HOKKO CHEMICAL INDUSTRY CO., LTD., priority 2023, dated 2024)

Columns and labels:
Assay type in all cases: in vivo
Echinochloa crus-galli [1] = assay: Test Example 4: herbicidal effect test by stem and leaf treatment in upland field; details: 120 g per 10 ares, sprayed seven days after sowing, upland soil, 14 days after application; for inhibition at 1200 g/ha: Echinochloa crus-galli, read-out: weed inhibition rate
Digitaria ciliaris [2] = assay: as above; details: 120 g per 10 ares, sprayed seven days after sowing, upland soil, 14 days after application; for inhibition at 1200 g/ha: Digitaria ciliaris, read-out: weed inhibition rate
Digitaria ciliaris [3] = assay: Test Example 8: herbicidal effect test by stem and leaf treatment in upland field (low dose); details: 7.5 g per 10 ares, sprayed seven days after sowing, upland soil, 14 days after application; for inhibition at 75 g/ha: Digitaria ciliaris, read-out: weed inhibition rate
Procedure: (§1) The present test was conducted in duplicate for each chemical concentration group, and the weed inhibition rate (%) was determined 14 days after chemical application using the following formula (Math. 1). [formula]
(§2) Pots with an area of 36 cm^2 were filled with upland soil (alluvial loam), twenty seeds each of weeds of Digitaria ciliaris, and Echinochloa crus-galli were uniformly mixed with the top 1 cm layer of soil and the surface was lightly pressed down. Seven days after sowing, an emulsifiable concentrate prepared according to Formulation Example 5 using the compound shown below was diluted with water, and the diluted solution was sprayed onto the soil surface at a rate of 100 liters per 10 ares. The amount of the active ingredient to be applied was equivalent to 7.5 g per 10 ares. Fourteen days after chemical application, the herbicidal effect was evaluated according to the same criteria as in Test Example 1.

Echinochloa crus-galli [4] = assay: as above; details: Echinochloa crus-galli; 7.5 g per 10 ares; sprayed seven days after sowing, upland soil; 14 days after application; read-out: weed inhibition rate
Procedure: as §1, §2

Digitaria ciliaris [5] = assay: Test Example 7: herbicidal effect test by soil application in upland field (low dose); details: Digitaria ciliaris, 7.5 g per 10 ares, sprayed one day after sowing, 14 days after application, read-out: weed inhibition rate
Procedure: as §1
as §2, with “One day” for “Seven days”

Echinochloa crus-galli [6] = assay: as above; details: Echinochloa crus-galli, 7.5 g per 10 ares, sprayed one day after sowing, 14 days after application, read-out: weed inhibition rate
Procedure: as §1
as §2, with “One day” for “Seven days”

[7] = tested on: Echinochloa crus-galli var. formosensis; assay: Test Example 1: herbicidal effect test by soil application in paddy rice; details: 120 g active ingredient per 10 ares, applied immediately after sowing, flooded pots, 14 days after application; for pest or weed control at 1200 g/ha: Echinochloa crus-galli, soil, 336 h, read-out: weed inhibition rate
Summary of the method: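 Treatment: 120 g active ingredient per 10 ares as a water-diluted emulsifiable concentrate, dropped onto flooded pots immediately after sowing. Thirty seeds per species went 0–1 cm into puddled paddy soil with 16:16:16 fertilizer, with ~3 cm flooding maintained in a glass greenhouse.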

Digitaria ciliaris [8] = assay: Test Example 3: herbicidal effect test by soil application in upland field; details: 120 g per 10 ares, sprayed one day after sowing, 14 days after application; for inhibition at 1200 g/ha: Digitaria ciliaris, read-out: weed inhibition rate
Summary of the method: (§3)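 Weed inhibition (%) was assessed 14 days after treatment, in duplicate per concentration group. Seeds had been mixed into the upper 1 cm of upland alluvial loam, and the soil surface was sprayed one day later with the diluted emulsifiable concentrate at 120 g active ingredient per 10 ares.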

Echinochloa crus-galli [9] = assay: as above; details: 120 g per 10 ares, sprayed one day after sowing, 14 days after application; for inhibition at 1200 g/ha: Echinochloa crus-galli, read-out: weed inhibition rate
Summary of the method: as §3

[10] = tested on: Echinochloa crus-galli var. formosensis; assay: Test Example 2: herbicidal effect test by application during growth period of paddy rice; details: 120 g per 10 ares, applied seven days after sowing, flooded pots, 14 days after application; for inhibition at 1200 g/ha: Echinochloa crus-galli, read-out: weed inhibition rate
Summary of the method: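 Weeds sown into puddled, flooded paddy soil received a post-emergence water application of emulsifiable concentrate at 120 g active ingredient per 10 ares, seven days after sowing. Herbicidal effect was rated 14 days later as inhibition (%).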

[11] = tested on: Echinochloa crus-galli var. formosensis; assay: Test Example 6: herbicidal effect test by application during growth period of paddy rice (low dose); details: Echinochloa crus-galli; 7.5 g per 10 ares; applied seven days after sowing, flooded pots; 14 days after application; read-out: weed inhibition rate
Procedure: as §1
(§4) Wagner pots with an area of […] were filled with paddy soil, followed by addition of water and incorporation of chemical fertilizer (N:P:K = 16:16:16), after which puddling was performed. After that, seeds of Echinochloa crus-galli var. formosensis, broad-leaved weeds (Monochoria vaginalis), and Scirpus juncoides were sown at a depth of 0 cm to 1 cm, 30 seeds each. Immediately after sowing, the pots were flooded and a water depth of approximately 3 cm was maintained. Subsequent management was conducted in a glass greenhouse. Seven days after sowing, an emulsifiable concentrate prepared according to Formulation Example 5 using the compound shown below was diluted with water, and a specified amount of the diluted solution was applied by dropper. The amount of the active ingredient to be applied was equivalent to 7.5 g per 10 ares. The test was conducted in duplicate for each chemical concentration group, and the herbicidal effect was evaluated 14 days after chemical application using the same criteria as in Test Example 1.

[12] = tested on: Echinochloa crus-galli var. formosensis; assay: Test Example 5: herbicidal effect test by soil application in paddy rice (low dose); details: Echinochloa crus-galli, soil, 336 h; 7.5 g per 10 ares; applied immediately after sowing, flooded pots; 14 days after application; read-out: weed inhibition rate
Procedure: as §1
as §4, with “Immediately thereafter,” for “Seven days after sowing,”, “The test was conducted in duplicate for each chemical concentration group, and the herbicidal effect was evaluated 14 days after chemical application using the same criteria as in Test Example 1.” left out

CC(C)[C@]12C[C@@H](OCc3ccccc3C(=O)O)[C@](C)(C[C@@H]1Br)O2 [1-706, 2-[[(1S,2R,4R,5S)-5-bromo-1-methyl-4-isopropyl-7-oxabicyclo[2.2.1]heptan-2-yl]oxymethyl]benzoic acid]
≥ 80%: inhibition at 1200 g/ha (Echinochloa crus-galli [1]) | inhibition at 1200 g/ha (Digitaria ciliaris [2]) | inhibition at 75 g/ha (Digitaria ciliaris [3]) | inhibition at 75 g/ha (Echinochloa crus-galli [4])

CC(C)[C@@]12C[C@H](OCc3ccccc3F)[C@@](C)(C[C@H]1C)O2 [1-1221, (1R,2S,4S,5R)-2-[(2-fluorophenyl)methoxy]-1,5-dimethyl-4-isopropyl-7-oxabicyclo[2.2.1]heptane]
≥ 80%: inhibition at 1200 g/ha (Digitaria ciliaris [2]) | inhibition at 75 g/ha (Digitaria ciliaris [3])

COc1ccccc1COC1CC2(C(C)C)OC1(C)CC2Br (stereo not shown) [1-1349, 5-bromo-2-[(2-methoxyphenyl)methoxy]-1-methyl-4-isopropyl-7-oxabicyclo[2.2.1]heptane]
≥ 80%: inhibition at 75 g/ha (Digitaria ciliaris [5]) | inhibition at 75 g/ha (Echinochloa crus-galli [6]) | pest or weed control at 1200 g/ha [7] | inhibition at 1200 g/ha (Digitaria ciliaris [8]) | inhibition at 1200 g/ha (Echinochloa crus-galli [9]) | inhibition at 1200 g/ha [10] | inhibition at 1200 g/ha (Echinochloa crus-galli [1]) | inhibition at 75 g/ha [11] | inhibition at 1200 g/ha (Digitaria ciliaris [2]) | inhibition at 75 g/ha (Digitaria ciliaris [3]) | inhibition at 75 g/ha (Echinochloa crus-galli [4]) | inhibition at 75 g/ha [12]

Cc1ccccc1COC1CC2(C(C)C)OC1(C)CC2Br (stereo not shown) [1-1343, 5-bromo-1-methyl-2-[(2-methylphenyl)methoxy]-4-isopropyl-7-oxabicyclo[2.2.1]heptane]
≥ 80%: inhibition at 75 g/ha (Digitaria ciliaris [5]) | inhibition at 75 g/ha (Echinochloa crus-galli [6]) | pest or weed control at 1200 g/ha [7] | inhibition at 1200 g/ha (Digitaria ciliaris [8]) | inhibition at 1200 g/ha (Echinochloa crus-galli [9]) | inhibition at 1200 g/ha [10] | inhibition at 1200 g/ha (Echinochloa crus-galli [1]) | inhibition at 75 g/ha [11] | inhibition at 1200 g/ha (Digitaria ciliaris [2]) | inhibition at 75 g/ha (Digitaria ciliaris [3]) | inhibition at 75 g/ha (Echinochloa crus-galli [4]) | inhibition at 75 g/ha [12]

CC(C)C12CC(OCc3ccccc3Br)C(C)(CC1Br)O2 (stereo not shown) [1-1361, 5-bromo-2-[(2-bromophenyl)methoxy]-1-methyl-4-isopropyl-7-oxabicyclo[2.2.1]heptane]
≥ 80%: inhibition at 75 g/ha (Digitaria ciliaris [5]) | inhibition at 75 g/ha (Echinochloa crus-galli [6]) | pest or weed control at 1200 g/ha [7] | inhibition at 1200 g/ha (Digitaria ciliaris [8]) | inhibition at 1200 g/ha (Echinochloa crus-galli [9]) | inhibition at 1200 g/ha [10] | inhibition at 1200 g/ha (Echinochloa crus-galli [1]) | inhibition at 75 g/ha [11] | inhibition at 1200 g/ha (Digitaria ciliaris [2]) | inhibition at 75 g/ha (Digitaria ciliaris [3]) | inhibition at 75 g/ha (Echinochloa crus-galli [4]) | inhibition at 75 g/ha [12]

CC(C)[C@]12C[C@@H](OCc3ccccc3C(F)(F)F)[C@](C)(C[C@@H]1Br)O2 [1-700, (1S,2R,4R,5S)-5-bromo-l-methyl-4-isopropyl-2-[[2-(trifluoromethyl)phenyl]methoxy]-7-oxabicyclo[2.2.1]heptane]
≥ 80%: weed inhibition rate [7] | weed inhibition rate (Digitaria ciliaris [8]) | weed inhibition rate (Echinochloa crus-galli [9]) | weed inhibition rate [10] | weed inhibition rate (Echinochloa crus-galli [1]) | weed inhibition rate (Digitaria ciliaris [2]) | weed inhibition rate (Digitaria ciliaris [3])

CC(C)[C@]12C[C@@H](OCc3ccccn3)[C@](C)(C[C@@H]1Br)O2 [1-718, 2-[[(1S,2R,4R,5S)-5-bromo-1-methyl-4-isopropyl-7-oxabicyclo[2.2.1]heptan-2-yl]oxymethyl]pyridine]
≥ 80%: inhibition at 75 g/ha (Digitaria ciliaris [5]) | inhibition at 75 g/ha (Echinochloa crus-galli [6]) | pest or weed control at 1200 g/ha [7] | inhibition at 1200 g/ha (Digitaria ciliaris [8]) | inhibition at 1200 g/ha (Echinochloa crus-galli [9]) | inhibition at 1200 g/ha [10] | inhibition at 1200 g/ha (Echinochloa crus-galli [1]) | inhibition at 75 g/ha [11] | inhibition at 1200 g/ha (Digitaria ciliaris [2]) | inhibition at 75 g/ha (Digitaria ciliaris [3]) | inhibition at 75 g/ha (Echinochloa crus-galli [4]) | inhibition at 75 g/ha [12]

COc1ccc(CO[C@@H]2C[C@]3(C(C)C)O[C@@]2(C)C[C@@H]3Br)cc1 [1-686, (1S,2R,4R,5S)-5-bromo-2-[(4-methoxyphenyl)methoxy]-1-methyl-4-isopropyl-7-oxabicyclo[2.2.1]heptane]
≥ 80%: inhibition at 1200 g/ha (Echinochloa crus-galli [1]) | inhibition at 1200 g/ha (Digitaria ciliaris [2]) | inhibition at 75 g/ha (Digitaria ciliaris [3]) | inhibition at 75 g/ha (Echinochloa crus-galli [4])

CC(C)C12CC(OCc3c(F)cccc3Br)C(C)(CC1Br)O2 (stereo not shown) [1-1598, 5-bromo-2-[(2-bromo-6-fluorophenyl)methoxy]-1-methyl-4-isopropyl-7-oxabicyclo[2.2.1]heptane]
≥ 80%: inhibition at 75 g/ha (Digitaria ciliaris [5]) | inhibition at 75 g/ha (Echinochloa crus-galli [6]) | pest or weed control at 1200 g/ha [7] | inhibition at 1200 g/ha (Digitaria ciliaris [8]) | inhibition at 1200 g/ha (Echinochloa crus-galli [9]) | inhibition at 1200 g/ha [10] | inhibition at 1200 g/ha (Echinochloa crus-galli [1]) | inhibition at 75 g/ha [11] | inhibition at 75 g/ha (Digitaria ciliaris [3]) | inhibition at 75 g/ha (Echinochloa crus-galli [4]) | inhibition at 75 g/ha [12]

COc1ccccc1CO[C@@H]1C[C@]2(C(C)C)O[C@@]1(C)C[C@@H]2Br [1-18, (1S,2R,4R,5S)-5-bromo-2-[(2-methoxyphenyl)methoxy]-1-methyl-4-isopropyl-7-oxabicyclo[2.2.1]heptane]
≥ 80%: pest or weed control at 1200 g/ha [7] | inhibition at 1200 g/ha [10] | inhibition at 1200 g/ha (Echinochloa crus-galli [1]) | inhibition at 75 g/ha [11] | inhibition at 1200 g/ha (Digitaria ciliaris [2]) | inhibition at 75 g/ha (Digitaria ciliaris [3]) | inhibition at 75 g/ha (Echinochloa crus-galli [4]) | inhibition at 75 g/ha [12]

COC(=O)c1ccccc1CO[C@@H]1C[C@]2(C(C)C)O[C@@]1(C)C[C@@H]2Br [1-709, methyl 2-[[(1S,2R,4R,5S)-5-bromo-1-methyl-4-isopropyl-7-oxabicyclo[2.2.1]heptan-2-yl]oxymethyl]benzoate]
≥ 80%: inhibition at 1200 g/ha (Echinochloa crus-galli [1]) | inhibition at 1200 g/ha (Digitaria ciliaris [2]) | inhibition at 75 g/ha (Digitaria ciliaris [3]) | inhibition at 75 g/ha (Echinochloa crus-galli [4])
